# Source: ChEMBL document CHEMBL4321815, “Discovery of an Extremely Potent Thiazine-Based β-Secretase Inhibitor with Reduced Cardiovascular and Liver Toxicity at a Low Projected Human Dose” (J Med Chem, 2019)
# Legend:
# [1] = Hepatotoxicity in po dosed Beagle dog assessed as induction of inflammatory cell infiltration of centrilobular hepatocytes at highest dose administered for 2 weeks; assay type: toxicity, organism-based, Canis lupus familiaris; settings: in vivo, 336 h
# [2] = tested on: Homo sapiens; assay: In vivo inhibition of BACE1 in human assessed as reduction in amyloidbeta level at 30 mg administered once daily after 14 days MSD electrochemiluminescent immunoassay relative to control; assay type: functional
# [3] = Hepatotoxicity in Beagle dog assessed as increase in alanine aminotransferase level at 50 mg/kg/day, po administered for 2 weeks; assay type: toxicity, organism-based, Canis lupus familiaris; settings: in vivo, 336 h
smiles,measurement,setting,value
C[C@@]1(c2cc(NC(=O)c3ccc(C#N)cn3)ccc2F)C=CSC(N)=N1 [ATABECESTAT],Activity,[1],Toxic
same,inhibition (INH),[2],80%
same,Activity,[3],Toxic
